The source of these data is patent US8524978B2, “Composition for production of plant body having improved sugar content, and use thereof” (Japan Science and Technology Agency, priority 2007, dated 2013).

Holding throughout (type): in vivo
Test [1] has as its system Lycopersicum esculentum. Nature of the test: Cultivation of Lycopersicum esculentum with GSSG or GSH, sensory tests of fruit (Example 1). To be noted: 50 mL of 0.5 mM at root twice a week, 60 days. An excerpt: In the present example, Lycopersicum esculentum was cultivated with use of GSSG or GSH. Details of cultivation are described below.
First, Lycopersicum esculentum seedlings (TAKII & CO. Ltd., product name: Osama tomato reika) were transplanted into a hydroponic culture pot ( 1/2000 a). In the hidroponic culture pot, 6 L of vermiculite (ASAHI INDUSTRIES Co., LTD.), 3 L of KUREHA horticultural soil (KUREHA CORPORATION), and 3 L of vermiculite were layered as a lower, middle, and upper layers, respectively.
During the cultivation of Lycopersicum esculentum, 50 mL of 0.5 mM GSSG or 0.5 mM GSH (adjusted with 0.1N NaOH to be at pH 7) was applied twice a week at a root per plant. The Lycopersicum esculentum plants were grown for 60 days without being subjected to bud removal. Last 10 days was used as a harvest period for harvesting fruit of the plants. For comparison, a Lycopersicum esculentum plant was grown under the same condition, except that GSSG and GSH were not applied. To the plants of any condition, 3 g of Kumiai phosphorate ammonium nitrate potassium S-604 (Chisso Asahi Fertilizer Co., Ltd.) was applied as an additional fertilizer once in 2 weeks.
Next, the fruit harvested was subjected to sensory tests of sugar content and the like. As a result, it was determined that fruit of the plant applied with GSSG increased in sugar content compared to that of the plant not applied with GSSG or GSH. Further, it was determined that the plant applied with GSSG increased in number of fruit. It was determined that fruit of the plant applied with GSH increased in sugar content and acidity.

For test [2], the system named is Lycopersicum esculentum. Nature of the test: Sugar content determination of Lycopersicum esculentum fruit with refractometer (Example 2). To be noted: 0.5 mM applied as in Example 1; compared to Cont and Cont2 Sunny conditions; ANOVA 5%. An excerpt: Cultivated were Lycopersicum esculentum plants to which GSSG or GSH was applied by the method described in Example 1. Then, obtained fruit of the plants was subjected to sugar content determination using “Pocket” Refractometer APAL-1 (ATAGO CO., LTD.).
For comparison, Lycopersicum esculentum plants were cultivated under two types of conditions (referred to as “Cont” and “Cont2 Sunny”). In the Cont condition, Lycopersicum esculentum plants were cultivated by the same method as in Example 1, except that GSSG and GSH were not applied. In the Cont2 Sunny condition, a Lycopersicum esculentum plant was not applied with GSSG or GSH and was independently cultivated at a site sufficiently irradiated with sunlight so that illuminance on the Lycopersicum esculentum plant becomes 100%. In the Cont condition and a condition in which GSSG or GSH was applied, the plants were planted at intervals of 40 cm to 50 cm. In this case, a plant may intercept light irradiating another plant. Therefore, illuminance on such plants becomes less than 100%.
In the condition in which GSSG was applied, the condition in which GSH is applied, and the Cont condition, three Lycopersicum esculentum plants were cultivated, respectively. In the Cont2 Sunny condition, one Lycopersicum esculentum plant was cultivated. […]

Test [3] concerns Vitis labrusca (Delaware). Nature of the test: Cultivation of Vitis labrusca with GSSG or GSH, sensory test (Example 5). The method, then: In the present invention, Vitis labrusca was cultivated. Specifically, immediately after flowering of a Vitis labrusca (Delaware) plant, a mixed solution of 1 mM gibberellin (GA3) and 1 mM of an agent was applied to anthotaxy of the plant. The agent was GSSG or GSH. Then, the plant was coated with the agent and thereafter produced fruit was harvested. For comparison, a Vitis labrusca plant was cultivated in the same way, except that GA3, but not GSSG or GSH, was applied, and fruit thereof was harvested and subjected to a sensory test described below.
The fruit harvested was subjected to a sensory test of sugar content. As a result, it was determined that fruit of the plant applied with GA3 and GSSG or GSH increased in sugar content compared to that of the plant applied with only GA3. Further, it was determined that the plant applied with GSSG and GA3 increased in size of fruit.

Test [4] has as its system Lycopersicum esculentum. Briefly: Change of sugar content over time after one application of GSH or GSSG (Example 6). As to conditions: 50 mL of 0.5 mM once at root 90 days after sowing; fruit harvested day 0 to day 4.
Method: In the present example, a sugar content of a plant was determined after a substance for regulating an oxidation-reduction state of a cell was applied to the plant. The substance for regulating an oxidation-reduction state of a cell was GSH or GSSG. As in the case of Example 1, Lycopersicum esculentum was used as the plant. Specifically, the following operations were carried out.
Ninety days after sowing of Lycopersicum esculentum seeds, Lycopersicum esculentum plants were subjected to a GSH or GSSG treatment. The Lycopersicum esculentum plants were cultivated by the same method as in Example 1 except for the GSH or GSSG treatment. The GSH or GSSG treatment was such that 50 mL of 0.5 mM GSSH or 0.5 mM GSH (adjusted with 0.1N NaOH to be at pH 7) was applied once at a root per plant. Then, fruit of the plants was harvested every day from the 0th day until the 4th day after application of GSH or GSSG, and subjected to sugar content determination. […] FIG. 3 is a graph showing a determination result of relation between sugar content and the number of days from an application day of GSH or GSSG. In FIG. 3, the vertical scale indicates sugar content (Brix, unit: %) and the horizontal scale indicates days from the application day. In FIG. 3, lines labeled with circles, triangles, and squares show results of the plants applied with GSH, GSSG, and no GSH and no GSSG, respectively. […]
In test [5] the test system is Fragaria ananassa. Briefly: Cultivation of Fragaria ananassa with GSSG or GSH, sensory tests of fruit (Example 10). As to conditions: 50 mL of 0.2 or 0.5 mM GSSG, or 0.4 or 0.5 mM GSH, once a week at root, 63 days. As to the method:
In the present example, Fragaria ananassa was cultivated with use of GSSG or GSH. Details of cultivation are described below.
(§1) First, Fragaria ananassa seedlings were transplanted to a planter. In the planter, 6 L of vermiculite (ASAHI INDUSTRIES Co., LTD.), 3 L of KUREHA horticultural soil (KUREHA CORPORATION), and 3 L of vermiculite were layered as a lower, middle, and upper layers, respectively.
(§2) During cultivation of Fragaria ananassa plants, 50 mL of 0.2 mM or 0.5 mM GSSG or 50 mL of 0.4 mM or 0.5 mM GSH (adjusted with 0.1N NaOH to be at pH7) was applied once a week at a root per plant. The plants were grown for 63 days without being subjected to bud removal. For comparison, a Fragaria ananassa plant was grown under the same condition, except that GSSG and GSH were not applied. To the plants of any condition, 3 g of Kumiai phosphorate ammonium nitrate potassium S-604 (Chisso Asahi Fertilizer Co., Ltd.) was applied as an additional fertilizer once in 2 weeks.
Next, the fruit harvested was subjected to sensory tests of sugar content and the like. As a result, it was determined that fruit of the plant applied with GSSG increased in sugar content and decreased in acidity compared to that of the plant not applied with GSSG or GSH. Further, it was determined that the plant applied with GSSG increased in number of fruit. It was also determined that fruit of the plant applied with GSH increased in sugar content and acidity.

For test [6], the system named is Fragaria ananassa. Nature of the test: Sugar content determination of Fragaria ananassa fruit with refractometer (Example 10). To be noted: 50 mL of 0.2 or 0.5 mM GSSG, or 0.4 or 0.5 mM GSH, once a week at root; significance level 5%. The method, then: as §1, §2
Further, the fruit obtained was subjected to sugar content determination using “Pocket” Refractometer APAL-1 (ATAGO CO., LTD.). For comparison, fruit not applied with GSSG or GSH was also subjected to the sugar content determination. […] In FIG. 7, the vertical scale indicates sugar content (Brix, unit: %).

With `N[C@@H](CCC(=O)N[C@@H](CS)C(=O)NCC(=O)O)C(=O)O` [GSH, reduced glutathione], the “acidity of fruit (sensory test)” value in the test with Lycopersicum esculentum [1] and in the test on Fragaria ananassa [5] was “increased” in each case. Also, the “sugar content of fruit (sensory test)” value was “increased” with Lycopersicum esculentum [1] (compared to plant not applied with GSSG or GSH); “increased” in test [3] (1 mM agent mixed with 1 mM gibberellin (GA3), applied to anthotaxy, compared to plant applied with only GA3); “increased” in the test with Fragaria ananassa [5] (vs plant not applied). For the same molecule, the “sugar content of fruit (Brix)” value in the test on Lycopersicum esculentum [2] is recorded as “significantly increased”. The sugar content result in test [3] (applied without GA3) is given as “increased”. For the same molecule, the “sugar content of fruit (Brix) after application” value in the test with Lycopersicum esculentum [4] is recorded as “rapidly improve”. For the same molecule, in the test on Fragaria ananassa [6], the “sugar content of fruit (Brix), ANOVA versus fruit not applied” value is “significant difference”.
